# In patent publication US6716834B2, “Thiochromane derivatives and their use as thrombin inhibitors” (AstraZeneca AB, priority 2000, dated 2004):
# Tests used:
# [1] = molecular target: T1, Human thrombin (Homo sapiens, UniProt P00734); assay: Test A: Determination of Thrombin Clotting Time (TT); type: biochemical; details: concentration of inhibitor that doubles the thrombin clotting time in plasma
# T1 construct: purchased Sigma Chem. Co or Hematologic Technologies T 6769
# Experimental: Determination of Thrombin Clotting Time (TT)
# The inhibitor solution (25 ? L) is incubated with plasma (25 ? L) for three minutes. Human thrombin (T 6769; Sigma Chem. Co or Hematologic Technologies) in buffer solution, pH 7.4 (25 ? L, 4.0 NIH units/mL), is then added and the clotting time measured in an automatic device (KC 10; Amelung).
# The thrombin clotting time (TT) is expressed as absolute values (seconds) as well as the ratio of TT without inhibitor (TT0) to TT with inhibitor (TTi). The latter ratios (range 1-0) are plotted against the concentration of inhibitor (log transformed) and fitted to sigmoidal dose-response curves according to the equation
# where: a=maximum range, i.e. 1; s=slope of the dose-response curve; and IC50=the concentration of inhibitor that doubles the clotting time. The calculations are processed on a PC using the software program GraFit Version 3, setting equation equal to: Start at 0, define end=1 (Erithacus Software, Robin Leatherbarrow, Imperial College of Science, London, UK).
# [2] = Test E: Determination of Thrombin Time ex vivo (bioavailability of active inhibitor after prodrug administration); type: in vivo; details: rat
# Excerpt: Determination of Thrombin Time ex vivo
# The inhibition of thrombin after oral or parenteral administration of the compounds of formula I, dissolved in ethanol:Solutol3:water (5:5:90), is examined in conscious rats which, one or two days prior to the experiment, are equipped with a catheter for blood sampling from the carotid artery. On the experimental day blood samples are withdrawn at fixed times after the administration of the compound into plastic tubes containing 1 part sodium citrate solution (0.13 mol per L) and 9 parts of blood. The tubes are centrifuged to obtain platelet poor plasma. The plasma is used for determination of thrombin time or ecarin clotting time (ECT) as described below.
# The citrated rat plasma, 100 ? L, is diluted with a saline solution, 0.9%, 100 ? […] The clotting time is measured in an automatic device (KC 10, Amelung, Germany). […]
# Based on the estimated plasma concentrations of the active thrombin inhibitor (which assumes that thrombin time or ECT prolongation is caused by the aforementioned compound) in the rat, the area under the curve after oral and/or parenteral administration of the corresponding prodrug compound of formula I is calculated (AUCpd) using the trapezoidal rule and extrapolation of data to infinity.
# The bioavailability of the active thrombin inhibitor after oral or parenteral administration of the prodrug is calculated as below: […]
# [3] = Test G: Metabolic Activation of Prodrug Compounds in vitro; type: in vitro ADME, human or rat
# Experimental: Metabolic Activation of Prodrug Compounds in vitro
# Prodrug compounds of formula IA are incubated at 37° C. with liver microsomes or 10 000 g (referring to the centrifuge speed) supernatant fractions (i.e. s9 fraction) prepared from human or rat liver homogenate. The total protein concentration in the incubations are 1 or 3 mg/mL dissolved in 0.05 mol/L TRIS buffer (pH 7.4), and with the cofactors NADH (2.5 mmol/L) and NADPH (0. 8 mmol/L) present. The total volume of the incubate is 1.2 mL. The initial prodrug concentrations are 5 or 10 ? mol/L. Samples are collected from the incubate at regular is intervals more than 60 minutes after the start of the incubations. Samples (25 ? L) from the incubate are mixed with an equal volume of human or rat plasma and an appropriate amount of thrombin, and the clotting time (i.e. thrombin time) is measured on a coagulometer (KC 10; Amelung). The amount of “active” thrombin inhibitor formed is estimated by the use of standard curves relating the thrombin time in pooled citrated human or rat plasma to known concentrations of the corresponding “active thrombin inhibitor”.
# The amount of “active” thrombin inhibitor is alternatively, or in addition to the above-mentioned method, estimated by the use of LC-MS.
SMILES,IC50 [1],further results
"N=C(N)c1ccc(CNC(=O)[C@@H]2CCN2C(=O)[C@@]2(O)CCS(=O)(=O)c3ccc(Cl)cc32)cc1 [Example 3, (R)-6-Chloro-4-hydroxy-1,1-dioxothiochromane-4-yl-C(O)-Aze-Pab]",< 50 nM,
"COc1cc(Cl)cc2c1[S+]([O-])CCC2(O)C(=O)N1CCC1C(=O)NCc1ccc(C(=N)N)cc1 (single isomer, unassigned) [Example 8, 6-Chloro-4-(R)-hydroxy-8-methoxy-1-(R or S)-oxo-thiochromane-4-yl-C(O)-Aze-PabxTFA]",< 50 nM,
"CON=C(N)c1ccc(CNC(=O)[C@@H]2CCN2C(=O)[C@@]2(O)CCS(=O)(=O)c3c(Cl)cc(Cl)cc32)cc1 [Example 6, (R)-6,8-Dichloro-4-hydroxy-1,1-dioxothiochromane-4-yl-C(O)-Aze-Pab(OMe)]",,oral and/or parenteral bioavailability as the corresponding active inhibitor (free amidine) [2]: exhibit oral and/or parenteral bioavailability in the rat as the corresponding active inhibitor (free amidine); oral and/or parenteral bioavailability as the corresponding active inhibitor (free amidine) ([3]; Test G as printed): exhibit oral and/or parenteral bioavailability in the rat as the corresponding active inhibitor (free amidine)
"N=C(N)c1ccc(CNC(=O)C2CCN2C(=O)C2(O)CCS(=O)(=O)c3c(OC(F)F)cc(Cl)cc32)cc1 (centres unmarked) [Example 7, 6-Chloro-8-difluoromethoxy-4-hydroxy-1,1-dioxothiochromane-4-yl-C(O)-Aze-Pab]",< 50 nM,
"COc1cc(Cl)cc2c1S(=O)(=O)CC[C@]2(O)C(=O)N1CC[C@H]1C(=O)NCc1ccc(C(=N)N)cc1 [Example 1, (R)-6-Chloro-4-hydroxy-8-methoxy-1,1-dioxothiochromane-4-yl-C(O)-Aze-Pab]",< 50 nM,
"COc1cc(Cl)cc2c1S(=O)(=O)CC[C@]2(O)C(=O)N1CC[C@H]1C(=O)NCc1ccc(C(N)=NC(=O)OC2CCCC2)cc1 [Example 5, (R)-6-Chloro-4-hydroxy-8-methoxy-1,1-dioxothiochromane-4-yl-C(O)-Aze-Pab(C(O)-O-cyclopentyl)]",,oral and/or parenteral bioavailability as the corresponding active inhibitor (free amidine) [3]: exhibit oral and/or parenteral bioavailability in the rat as the corresponding active inhibitor (free amidine)
"COc1cc(Cl)cc2c1S(=O)(=O)CC[C@]2(O)C(=O)N1CC[C@H]1C(=O)NCc1ccc(C(N)=NOCc2ccccc2)cc1 [Example 4, (R)-6-Chloro-4-hydroxy-8-methoxy-1,1-dioxothiochromane-4-yl-C(O)-Aze-Pab(OBn)]",,oral and/or parenteral bioavailability as the corresponding active inhibitor (free amidine) [3]: exhibit oral and/or parenteral bioavailability in the rat as the corresponding active inhibitor (free amidine)
